Laboratory results from the supplement of paper PMC10307832.

Tests used:
Assay in all cases: relative viability (nuclei count vs DMSO), 5 days (fraction); higher = more cells survive
[1] = compound: N#CC[C@H](C1CCCC1)n1cc(-c2ncnc3[nH]ccc23)cn1 [Ruxolitinib] + C[C@]1(O)C[C@@H](c2nc(-c3ccc4ccc(-c5ccccc5)nc4c3)c3c(N)nccn32)C1 [Linsitinib] (partner 1 µM)
How it was run: (§1)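 Values are medians from duplicate plates. Each reflects relative viability, defined as the nuclei count of treated wells over that of vehicle wells. Lung cancer cell lines in 1536-well plates were pin-tool dosed one day after seeding with one drug alone or with a fixed anchor-drug dose plus five library-drug doses (not always all listed) in √10 steps, then fixed, stained and imaged at 4× after 5 days.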

[2] = compound: N#CC[C@H](C1CCCC1)n1cc(-c2ncnc3[nH]ccc23)cn1 [Ruxolitinib] + C[C@@H](Oc1cc(-c2cnn(C3CCNCC3)c2)cnc1N)c1c(Cl)ccc(F)c1Cl [Crizotinib] (partner 1 µM)
How it was run: as §1

[3] = compound: CS(=O)(=O)c1ccc(-c2cnc(N)c(C(=O)Nc3ccccc3)n2)cc1 [VE-821] + Nc1ncn([C@H]2C[C@H](O)[C@@H](CO)O2)c(=O)n1 [Decitabine] (partner 2 µM)
How it was run: as §1

[4] = compound: CS(=O)(=O)c1ccc(C(=O)Nc2ccc(Cl)c(-c3ccccn3)c2)c(Cl)c1 [Vismodegib] + O=C(c1cc(Cc2n[nH]c(=O)c3ccccc23)ccc1F)N1CCN(C(=O)C2CC2)CC1 [Olaparib] (partner 8 µM)
How it was run: as §1

Cell Line | relative viability ([1]; first compound 0.08 µM) | relative viability ([1]; first compound 0.253 µM) | relative viability ([1]; first compound 0.8 µM) | relative viability ([1]; first compound 2.53 µM) | relative viability ([1]; first compound 8 µM) | relative viability ([2]; first compound 0.08 µM) | relative viability ([2]; first compound 0.253 µM) | relative viability ([2]; first compound 0.8 µM) | relative viability ([2]; first compound 2.53 µM) | relative viability ([2]; first compound 8 µM) | relative viability ([3]; first compound 0.08 µM) | relative viability ([3]; first compound 0.253 µM) | relative viability ([3]; first compound 0.8 µM) | relative viability ([3]; first compound 2.53 µM) | relative viability ([3]; first compound 8 µM) | relative viability ([4]; first compound 0.08 µM) | relative viability ([4]; first compound 0.253 µM) | relative viability ([4]; first compound 0.8 µM) | relative viability ([4]; first compound 2.53 µM) | relative viability ([4]; first compound 8 µM)
HCC-78 | 0.419 | 0.296 | 0.437 | 0.372 | 0.414 | 0.305 | 0.273 | 0.308 | 0.322 | 0.324 | 0.619 | 0.597 | 0.719 | 0.785 | 0.699 | 0.676 | 0.79 | 0.639 | 0.755 | 0.844
HCC-366 | 0.595 | 0.401 | 0.647 | 0.535 | 0.541 | 0.513 | 0.551 | 0.549 | 0.449 | 0.257 | 0.398 | 0.381 | 0.323 | 0.226 | 0.121 | 0.343 | 0.364 | 0.378 | 0.431 | 0.372
HCC-827 | – | 1.03 | 0.913 | 0.972 | 0.803 | – | 0.878 | 0.734 | 0.856 | 0.826 | 0.347 | 0.344 | 0.357 | 0.352 | 0.357 | 0.581 | 0.653 | 0.728 | 0.678 | 0.657
HOP-62 | – | 0.995 | 1.05 | 0.991 | 0.867 | – | 1.05 | 0.707 | 1.01 | 0.749 | 0.185 | 0.261 | 0.265 | 0.214 | 0.25 | 0.403 | 0.47 | 0.387 | 0.396 | 0.345
IA-LM | 0.652 | 0.662 | 0.719 | 0.518 | 0.469 | 0.886 | 1.05 | 0.791 | 0.849 | 0.638 | – | – | – | – | – | 0.841 | 0.853 | 0.892 | 0.773 | 0.941
LC-2-ad | 0.741 | 0.86 | 0.814 | 0.68 | 0.496 | – | 0.485 | 0.49 | 0.474 | 0.465 | 0.747 | 0.769 | 0.955 | 0.865 | 0.916 | 0.681 | 0.734 | 0.686 | 0.658 | 0.716
LCLC-97TM1 | 0.195 | 0.151 | 0.189 | 0.22 | 0.219 | 0.361 | 0.393 | 0.487 | 0.472 | 0.275 | 0.266 | 0.278 | 0.239 | 0.251 | 0.178 | 0.355 | 0.416 | 0.439 | 0.298 | 0.565
LCLC-103H | 1.2 | 1.24 | 1.25 | 1.04 | 1.03 | 1.04 | 1.15 | 1.2 | 1.09 | 0.988 | 0.749 | 0.702 | 0.778 | 0.77 | 0.729 | 0.759 | 0.757 | 0.73 | 0.733 | 0.832
LK-2 | 0.459 | 0.715 | 0.722 | 0.36 | 0.765 | – | 0.224 | 0.243 | 0.283 | 0.239 | 0.323 | 0.338 | 0.415 | 0.384 | 0.256 | 0.379 | 0.574 | 0.956 | 0.638 | 0.604
NCI-H522 | – | – | – | – | – | – | – | – | – | – | 0.678 | 0.67 | 0.7 | 0.727 | 0.638 | 0.786 | 0.591 | 0.612 | 0.567 | 0.565
NCI-H1299 | 0.981 | 0.974 | 0.975 | 0.917 | 0.871 | 0.981 | 0.909 | 0.973 | 0.839 | 0.704 | – | – | – | – | – | 0.913 | 0.964 | 0.967 | 0.935 | 0.951
NCI-H1395 | – | 0.998 | 1.08 | 0.945 | 1.01 | – | – | – | – | – | 0.733 | 0.672 | 0.74 | 0.74 | 0.638 | 0.467 | 0.553 | 0.494 | 0.468 | 0.491
NCI-H1563 | 1.18 | 1.21 | 1.25 | 1.16 | 1.09 | 0.865 | 0.84 | 0.931 | 0.704 | 0.838 | – | – | – | – | – | – | – | – | – | –
NCI-H1648 | – | – | – | – | – | – | – | – | – | – | 0.658 | – | 0.54 | 0.498 | 0.471 | 0.781 | 0.767 | 0.46 | 0.645 | 0.872
NCI-H1650 | – | – | – | – | – | – | 0.9 | 1.11 | 0.83 | 0.848 | 0.448 | 0.369 | 0.322 | 0.437 | 0.389 | 0.896 | 0.633 | 0.763 | 0.794 | 0.746
NCI-H1703 | 1.07 | 0.624 | 1.25 | 0.451 | 0.547 | 0.643 | 0.611 | 0.832 | 0.497 | 0.241 | – | – | – | – | – | 0.495 | 0.42 | 0.543 | 0.349 | 0.44
NCI-H1793 | 0.632 | 0.92 | 1.04 | 1.12 | 0.968 | – | – | – | – | – | 0.55 | 0.468 | – | 0.637 | 0.461 | – | 0.907 | 1.11 | 0.917 | 0.884
NCI-H2170 | – | – | – | – | – | 1.14 | 1.23 | 1.19 | 1.05 | 1.1 | 0.515 | 0.469 | 0.487 | 0.434 | 0.295 | 0.624 | 0.549 | 0.657 | 0.581 | 0.584
NCI-H2228 | 0.796 | 0.686 | 0.85 | 0.626 | 0.559 | 0.63 | 0.36 | 0.531 | 0.492 | 0.403 | – | – | – | – | – | 0.596 | 0.796 | 0.56 | 0.502 | 0.477
NCI-H2342 | – | – | – | – | – | – | – | – | – | – | 0.773 | 0.754 | 0.704 | 0.75 | 0.682 | 0.402 | 0.421 | 0.418 | 0.52 | 0.406
SW 900 | – | – | – | – | – | – | – | – | – | – | 0.471 | 0.456 | 0.472 | 0.469 | 0.386 | 0.743 | 0.866 | 0.784 | – | 0.803
